# No end group written: not given here.
# How the values were obtained:
# [1] = GVHD in experimental HSCT with donor T cells and DCs; assay type: in vivo, mouse; settings: 10^5 donor T cells plus Thymosin alpha 1-treated GM-DCs, uninfected mice
# Experimental: (§1) Human peripheral blood mononuclear cells were obtained from healthy donors and seven recipients of T-cell depleted haploidentical HSCT, upon written informed consent. Donor typing, engraftment and GVHD were assessed as described (Blood. 2005; 106; 4397-4406). Experimental HSCT model Lethally irradiated (8 Gy) C57BL6 mice were infused with T cell-depleted bone marrow cells from BALB/c mice (Blood. 2003; 102:3807-3814). For GVHD, purified donor CD3+ T splenocytes were added to the graft (Science. 2002; 295:2097-2100). Individual mice were graded weekly from 0-2 for each GVHD criterion (see legend to FIG. 3) without knowledge of treatment group.
# Mice were either left uninfected for the assessment of GVHD or infected for the assessment of susceptibility to infection. […]
# (§2) Resistance to infection was assessed in terms of MST (median survival time in days) and fungal growth in the lung ([…] glucosamine content, bars indicating standard errors) 3 days after infection or at the time of death (A). […] The degree of systemic GVHD was assessed by a scoring system that sums changes in five clinical parameters: weight loss, posture (hunching), activity, fur texture, and skin integrity (maximum index=10). […]
# A. fumigatus = assay: Aspergillosis in experimental HSCT after adoptive transfer of fungus-pulsed DCs; assay type: in vivo, mouse
# Experimental: as §1
# The strain of A. fumigatus, the culture conditions and infection were as described in Blood. 2004; 103:4232-4239. Mice were anesthetized with 2.5% avertin (Sigma Chemical Co, St. Louis, Mo.). Quantification of fungal growth in the lungs was done by the chitin assay and results are expressed as micrograms of glucosamine per pair of lungs, and PAS staining was done as described in Blood. 2004; 103:4232-4239.
# Mice received twice intraperitoneal injections of DCs, at weekly interval, starting a day after HSCT and infected a week after the last DC administration. Three days later, lung homogenates, CD4+ T cells (>98% on FACS analysis), CD4+CD25− (>98%) or CD4+CD25+ (>82%) purified with the specific Miltenyi Biotec isolation kits were assessed for pattern of pro- and anti-inflammatory (TNF-a/IL-10 in lung homogenates), Th1 (IFN-γ) or Th2 (IL-4) cytokine production by CD4+ cells stimulated with Aspergillus-pulsed DCs (Blood. 2003; 102:3807-3814) frequency of CD25+ IL-10^+ TGF-β+ T reg cells, lymphoproliferation and gene expression by RT-PCR. For proliferation, TLN CD4+ T lymphocytes were plated (10^5 cells/well) with 10^5 cells/well irradiated allogeneic splenocytes or autologous spDCs pulsed with conidia or 10 μg/mL Con A for five days before H^3-thymidine labeling.
# Lethally irradiated C57BL/6 mice received=2×10^6 T cell-depleted allogeneic bone marrow cells from BALB/c mice 2 wk before the intratracheal injection of 2×10^8/80 μl saline Aspergillus conidia. One and seven days after transplantation, mice received Aspergillus-pulsed GM- or FL-DCs grown in Thymosin alpha 1, intraperitoneally.
# as §2
# lymphosarcoma cells = settings: BALB/c mice; cited from earlier work
# splenic CD4+ T cells = assay: Th1/T reg priming in vitro of splenic CD4+ T cells by Aspergillus-pulsed DCs (ELISPOT, flow cytometry); assay type: cell-based, mouse
# Experimental: IDO expression and functional activity were assessed as described in Nat. Immunol. 2002; 3:1097-1101. Generation, purification and activity of T reg cells Splenic CD4+ T-cells were cocultured with conidia-pulsed DCs for 5 days […] before flow cytometry or ELISPOT assay. 1-MT (Sigma-Aldrich) was used at 2 μM. CD4+CD25+ and CD4+CD25− cells (>90% pure on FACS analysis) were separated by magnetic cell sorting from lung and TLN (J. Immunol. 2006; 176:1712-1723). For T reg cell inhibition, 5×10^4 TLN T reg cells were added to 3×10^5 CD4+CD25− cells, both from transplanted mice, stimulated with 3×10^4 autologous Aspergillus conidia-pulsed spDCs or with or 1.5×10^5 allogeneic spDCs from naïve donor mice for five days before H^3-thymidine labeling. Purified peritoneal CD 11b+Gr−1+PMN (>98% pure on FACS analysis) (2×10^6) were exposed to resting conidia in the presence of 4×10^5 CD4+CD25+ for 60 min for oxidant production or 24 hours for cytokine production (J. Immunol. 2006; 176:1712-1723).
# Cytokine content was assessed by enzyme-linked immunosorbent assays (Endogen Human Elisa Kits, R&D Systems and Euroclone, Milan, Italy). AID EliSpot assay kits (Amplimedical, Buttigliera Alta, Turin, Italy) were used on purified splenic CD4+ Tcells cocultured with conidia-pulsed DCs for 5 days to enumerate cytokine-producing cells (Blood. 2003; 102:3807-3814). 1-MT was used at 2 μM.
# (A) Frequency of IFN-γ-/IL-10-producing splenic CD4+ T cells activated by Aspergillus-pulsed Thymosin alpha 1-treated GM-DCs or FL-DCs. 1-MT was present in selected cultures. Plates were read with the AID-EliSpot Reader System (Amplimedical). Values are means±SE per 10^6 cells of samples from 3-5 experiments, calculated using replicates of serial twofold dilutions of cells. (*) P<0.05, conidia-exposed versus unexposed cells; (**) P<0.05, thymosin-exposed versus unexposed cells.
# (B) Phenotypic analysis of CD4+ cells cultured alone (−) or as in (A). Numbers represent the percentage of double positive cells.
substance,measurement,setting,value
"Thymosin alpha 1: naturally occurring thymic peptide; supplied as purified, endotoxin-free sterile lyophilized acetylated polypeptide from SciClone Pharmaceuticals (Ac-SDAAVDTSSEITTKDLKEKKEVVEEAEN; UniProt P06454 2-29, looked up)",acceleration of GVHD induction by GM-DCs,[1],totally prevented the effect
same,survival to infection in the presence of donor T cells,A. fumigatus; donor T cells plus Thymosin alpha 1-treated GM-DCs,survived infection
same,local inflammatory cell recruitment and reaction in the lungs (histopathology),"A. fumigatus; mice infused with Thymosin alpha 1-treated GM-DCs, 3 days after infection",few healing infiltrates of inflammatory cells with no evidence of bronchial wall damage and inflammatory response and low
same,vaccinating potential of FL-DCs,A. fumigatus; transfer of Thymosin alpha 1-treated FL-DCs,would not affect the vaccinating potential of FL-DCs
same,"protection from aspergillosis (survival, fungal growth)","A. fumigatus; transfer of Thymosin alpha 1-treated GM-DCs, intraperitoneally",complete protection
same,"local sarcoma growth, liver and lung metastases of lymphosarcoma cells",lymphosarcoma cells,significantly reduced
same,priming for IL-10-producing cells by FL-DCs,"splenic CD4+ T cells; Aspergillus-pulsed FL-DCs, 5 days coculture",increased priming
same,priming for IFN-γ-/IL-10-producing CD4+ T cells by GM-DCs,"splenic CD4+ T cells; Aspergillus-pulsed GM-DCs, 5 days coculture",increased priming
same,CD4+CD25+ T cells positive for intracellular Foxp3 and surface CTLA-4,splenic CD4+ T cells; cultured with Thymosin alpha 1-induced DCs,a significant proportion of the CD4+CD25+ T cells stained positive for intracellular Foxp3 and surface CTLA-4
